Assay in all cases: relative viability (nuclei count vs DMSO), 5 days (fraction); higher = more cells survive
Compound in assay [1]: C1=CC=C(C(=C1)C2=CC=C(C=C2)C3=CSC4=C3C(=C(C(=O)N4)C#N)O)O + Cc1nc(Nc2ncc(C(=O)Nc3c(C)cccc3Cl)s2)cc(N2CCN(CCO)CC2)n1 [Dasatinib] (partner 0.075 µM)
A digest of the protocol: (§1)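 Lung cancer cell lines were seeded in 1536-well plates and dosed by pin tool the next day, with either a single drug or a fixed anchor-drug dose combined with five library-drug doses (not always all listed) spaced in √10 steps. Five days later, one step fixed the cells and stained their nuclei (final 0.05% Triton X-100, 1% formaldehyde, 1 ug/ml Hoechst), and nuclei were counted on 4× images. Relative viability is the nuclei count in treated wells divided by the count in vehicle wells, and each value is the median of duplicate plates.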

Compound in the assay “TGX 221 + Palbociclib”: CC1=CN2C(=O)C=C(N=C2C(=C1)C(C)NC3=CC=CC=C3)N4CCOCC4 [TGX 221] + CC(=O)c1c(C)c2cnc(Nc3ccc(N4CCNCC4)cn3)nc2n(C2CCCC2)c1=O [Palbociclib] (partner 0.5 µM)
A digest of the protocol: as §1

Compound in the assay “TGX 221 + Navitoclax”: CC1=CN2C(=O)C=C(N=C2C(=C1)C(C)NC3=CC=CC=C3)N4CCOCC4 [TGX 221] + CC1(C)CCC(c2ccc(Cl)cc2)=C(CN2CCN(c3ccc(C(=O)NS(=O)(=O)c4ccc(N[C@H](CCN5CCOCC5)CSc5ccccc5)c(S(=O)(=O)C(F)(F)F)c4)cc3)CC2)C1 [Navitoclax] (partner 0.5 µM)
A digest of the protocol: as §1

Compound in the assay “Ricolinostat + AZD7762”: O=C(CCCCCCNC(=O)c1cnc(N(c2ccccc2)c2ccccc2)nc1)NO [Ricolinostat] + NC(=O)Nc1cc(-c2cccc(F)c2)sc1C(=O)N[C@H]1CCCNC1 [AZD7762] (partner 0.2 µM)
The gist of the method:
as §1

Take 201T: the relative viability was 0.564 in assay [1] (first compound 0.08 µM); 0.597 in assay [1] (first compound 0.253 µM); 0.521 in assay [1] (first compound 0.8 µM); 0.516 in assay [1] (first compound 2.53 µM); 0.654 in assay [1] (first compound 8 µM); 0.356 with TGX 221 + Palbociclib (first compound 0.08 µM). For the same cell line, the relative viability with TGX 221 + Palbociclib (first compound 0.253 µM) came out at 0.348; with TGX 221 + Palbociclib (first compound 0.8 µM), 0.331; in the assay with TGX 221 + Palbociclib (first compound 2.53 µM) it was 0.337; with TGX 221 + Palbociclib (first compound 8 µM), 0.32; with TGX 221 + Navitoclax (first compound 0.253 µM), 1.26; with TGX 221 + Navitoclax (first compound 0.8 µM), 1.21. Also, the relative viability in the assay with TGX 221 + Navitoclax (first compound 2.53 µM) worked out at 1.19; with TGX 221 + Navitoclax (first compound 8 µM), 1.15; in the assay with Ricolinostat + AZD7762 (first compound 0.08 µM), 0.607; with Ricolinostat + AZD7762 (first compound 0.253 µM), 0.657; with Ricolinostat + AZD7762 (first compound 0.8 µM), 0.645; in the assay with Ricolinostat + AZD7762 (first compound 2.53 µM), 0.541.
Regarding A-427, the relative viability in assay [1] (first compound 0.08 µM) is 0.645; in assay [1] (first compound 0.253 µM) it was 0.67; in assay [1] (first compound 0.8 µM) it was 0.716; in assay [1] (first compound 2.53 µM), 0.658; in assay [1] (first compound 8 µM) it was 0.619; with TGX 221 + Palbociclib (first compound 0.08 µM), 0.542. Besides, the relative viability with TGX 221 + Palbociclib (first compound 0.253 µM) is 0.546; with TGX 221 + Palbociclib (first compound 0.8 µM), 0.513; in the assay with TGX 221 + Palbociclib (first compound 2.53 µM) it was 0.504; with TGX 221 + Palbociclib (first compound 8 µM) it was 0.516; with TGX 221 + Navitoclax (first compound 0.08 µM), 1.05; with TGX 221 + Navitoclax (first compound 0.253 µM), 0.976. The relative viability with TGX 221 + Navitoclax (first compound 0.8 µM) was determined as 0.949; with TGX 221 + Navitoclax (first compound 2.53 µM), 0.935; in the assay with TGX 221 + Navitoclax (first compound 8 µM), 0.803; with Ricolinostat + AZD7762 (first compound 0.08 µM) it was 0.606; with Ricolinostat + AZD7762 (first compound 0.253 µM) it was 0.708; with Ricolinostat + AZD7762 (first compound 0.8 µM), 0.518. Further, the relative viability with Ricolinostat + AZD7762 (first compound 2.53 µM) amounted to 0.507.
Consider BEN, for which the relative viability turned out to be 0.287 in assay [1] (first compound 0.08 µM); 0.284 in assay [1] (first compound 0.253 µM); 0.312 in assay [1] (first compound 0.8 µM); 0.318 in assay [1] (first compound 2.53 µM); 0.318 in assay [1] (first compound 8 µM); 0.483 with TGX 221 + Palbociclib (first compound 0.08 µM). Also, the relative viability with TGX 221 + Palbociclib (first compound 0.253 µM) is 0.413; in the assay with TGX 221 + Palbociclib (first compound 0.8 µM) it was 0.439; in the assay with TGX 221 + Palbociclib (first compound 2.53 µM), 0.487; with TGX 221 + Palbociclib (first compound 8 µM) it was 0.503; with TGX 221 + Navitoclax (first compound 0.08 µM), 0.0671; with TGX 221 + Navitoclax (first compound 0.253 µM), 0.0617. The relative viability with TGX 221 + Navitoclax (first compound 0.8 µM) worked out at 0.0682; with TGX 221 + Navitoclax (first compound 2.53 µM), 0.0659; in the assay with TGX 221 + Navitoclax (first compound 8 µM), 0.0557; with Ricolinostat + AZD7762 (first compound 0.08 µM) it was 0.534; with Ricolinostat + AZD7762 (first compound 0.253 µM) it was 0.754; with Ricolinostat + AZD7762 (first compound 0.8 µM) it was 0.559. Moreover, the relative viability with Ricolinostat + AZD7762 (first compound 2.53 µM) amounted to 0.576.
For the cell line CAL-12T, the relative viability in assay [1] (first compound 0.08 µM) came to 0.389; in assay [1] (first compound 0.253 µM) it was 0.353; in assay [1] (first compound 0.8 µM), 0.435; in assay [1] (first compound 2.53 µM) it was 0.36; in assay [1] (first compound 8 µM), 0.362; with TGX 221 + Palbociclib (first compound 0.08 µM), 0.466. Also, the relative viability was 0.556 with TGX 221 + Palbociclib (first compound 0.253 µM); 0.467 in the assay with TGX 221 + Palbociclib (first compound 0.8 µM); 0.326 with TGX 221 + Palbociclib (first compound 2.53 µM); 0.0733 with TGX 221 + Palbociclib (first compound 8 µM); 1.06 with TGX 221 + Navitoclax (first compound 0.08 µM); 1.2 in the assay with TGX 221 + Navitoclax (first compound 0.253 µM). Also, the relative viability in the assay with TGX 221 + Navitoclax (first compound 0.8 µM) came out at 1.36; with TGX 221 + Navitoclax (first compound 2.53 µM), 1.23; with TGX 221 + Navitoclax (first compound 8 µM), 1.07; with Ricolinostat + AZD7762 (first compound 0.08 µM), 0.496; with Ricolinostat + AZD7762 (first compound 0.253 µM) it was 0.602; with Ricolinostat + AZD7762 (first compound 0.8 µM), 0.56. Moreover, the relative viability with Ricolinostat + AZD7762 (first compound 2.53 µM) amounted to 0.489.
Turning to ChaGo-K-1, the relative viability turned out to be 0.48 in assay [1] (first compound 0.08 µM); 0.614 in assay [1] (first compound 0.253 µM); 0.661 in assay [1] (first compound 0.8 µM); 0.595 in assay [1] (first compound 2.53 µM); 0.542 in assay [1] (first compound 8 µM); 0.853 with TGX 221 + Palbociclib (first compound 0.08 µM). The relative viability with TGX 221 + Palbociclib (first compound 0.253 µM) is 0.835; with TGX 221 + Palbociclib (first compound 0.8 µM) it was 0.916; with TGX 221 + Palbociclib (first compound 2.53 µM) it was 0.921; with TGX 221 + Palbociclib (first compound 8 µM), 0.935; with TGX 221 + Navitoclax (first compound 0.08 µM) it was 0.957; with TGX 221 + Navitoclax (first compound 0.253 µM), 1.02. Also, the relative viability in the assay with TGX 221 + Navitoclax (first compound 0.8 µM) was determined as 0.987; in the assay with TGX 221 + Navitoclax (first compound 2.53 µM), 0.737; with TGX 221 + Navitoclax (first compound 8 µM), 1.36; with Ricolinostat + AZD7762 (first compound 0.08 µM), 0.842; with Ricolinostat + AZD7762 (first compound 0.253 µM) it was 0.901; with Ricolinostat + AZD7762 (first compound 0.8 µM), 0.862. Further, the relative viability with Ricolinostat + AZD7762 (first compound 2.53 µM) came out at 0.798.
Turning to EKVX, the relative viability in assay [1] (first compound 0.08 µM) was found to be 0.47; in assay [1] (first compound 0.253 µM), 0.724; in assay [1] (first compound 0.8 µM), 0.671; in assay [1] (first compound 2.53 µM), 0.621; in assay [1] (first compound 8 µM), 0.403; in the assay with TGX 221 + Palbociclib (first compound 0.08 µM) it was 0.313. Also, the relative viability with TGX 221 + Palbociclib (first compound 0.253 µM) came to 0.418; in the assay with TGX 221 + Palbociclib (first compound 0.8 µM), 0.358; with TGX 221 + Palbociclib (first compound 2.53 µM) it was 0.329; with TGX 221 + Palbociclib (first compound 8 µM), 0.299; in the assay with TGX 221 + Navitoclax (first compound 0.08 µM), 0.926; with TGX 221 + Navitoclax (first compound 0.253 µM), 0.869. Also, the relative viability with TGX 221 + Navitoclax (first compound 0.8 µM) was 0.866; in the assay with TGX 221 + Navitoclax (first compound 2.53 µM) it was 0.908; with TGX 221 + Navitoclax (first compound 8 µM), 0.758; in the assay with Ricolinostat + AZD7762 (first compound 0.08 µM), 0.673; in the assay with Ricolinostat + AZD7762 (first compound 0.253 µM), 0.732; with Ricolinostat + AZD7762 (first compound 0.8 µM) it was 0.654. The relative viability with Ricolinostat + AZD7762 (first compound 2.53 µM) was found to be 0.487.
With EMC-BAC-2, the relative viability was 0.35 in assay [1] (first compound 0.08 µM); 0.332 in assay [1] (first compound 0.253 µM); 0.306 in assay [1] (first compound 0.8 µM); 0.283 in assay [1] (first compound 2.53 µM); 0.316 in assay [1] (first compound 8 µM); 0.493 in the assay with TGX 221 + Palbociclib (first compound 0.08 µM). Also, the relative viability is 0.492 with TGX 221 + Palbociclib (first compound 0.253 µM); 0.51 with TGX 221 + Palbociclib (first compound 0.8 µM); 0.547 with TGX 221 + Palbociclib (first compound 2.53 µM); 0.439 with TGX 221 + Palbociclib (first compound 8 µM); 1.16 with TGX 221 + Navitoclax (first compound 0.08 µM); 1.1 with TGX 221 + Navitoclax (first compound 0.253 µM). Also, the relative viability in the assay with TGX 221 + Navitoclax (first compound 0.8 µM) was 1.13; with TGX 221 + Navitoclax (first compound 2.53 µM), 1.11; with TGX 221 + Navitoclax (first compound 8 µM), 1.05; with Ricolinostat + AZD7762 (first compound 0.08 µM), 1.01; with Ricolinostat + AZD7762 (first compound 0.253 µM) it was 1.03; with Ricolinostat + AZD7762 (first compound 0.8 µM) it was 0.968. In the assay with Ricolinostat + AZD7762 (first compound 2.53 µM), the relative viability is 0.557.

The values above are taken from the supplement of paper PMC10307832.
